# Measurements as given in US20250059220A1, “SUBSTITUTED BENZOTHIOPHENE DERIVATIVES AND METHODS OF USE THEREOF” (Merck Sharp & Dohme LLC, priority 2021, published 2025).
# Assays:
# human PTPN1 (1-435) = human PTPN1 (1-435) (Homo sapiens (Human), UniProt P18031); experiment: Human PTPN1 Biochemical Assay; conditions: DiFMUP substrate, read-out: PTP1B IC50
# Description: Human PTPN1 Biochemical Assay
# Test compounds were dissolved in DMSO, and 10-point serial 3-fold dilution series in DMSO were prepared in Echo Qualified 384-well Polypropylene Microplates (Labcyte, San Jose, CA) (top concentration 50 µM). […] 5 μl of assay buffer was added into the low control. The plate was incubated for 30 minutes at room temperature. Subsequently, 5 μl of 100 µM DiFMUP (6,8-difluoro-4-methylumbelliferyl phosphate) solution (prepared in assay buffer from 10 mM stock in DMSO) was added to the assay plate and incubated for 1 hour at room temperature. For detection, assay plates were read on SpectraMax Microplate Reader (Molecular Devices), with Excitation wavelength=360 nm and Emission wavelength=460 nm. […] Calculated % effects were fit using a 4-parameter algorithm, and EC50 was reported.
# human PTPN2 (1-387) = human PTPN2 (1-387) (Homo sapiens (Human), UniProt P17706); experiment: Human PTPN2 Biochemical Assay; conditions: DiFMUP substrate
# human PTPN2 (1-387), sequence (P17706 other isoform, or with tags, fused parts or gaps): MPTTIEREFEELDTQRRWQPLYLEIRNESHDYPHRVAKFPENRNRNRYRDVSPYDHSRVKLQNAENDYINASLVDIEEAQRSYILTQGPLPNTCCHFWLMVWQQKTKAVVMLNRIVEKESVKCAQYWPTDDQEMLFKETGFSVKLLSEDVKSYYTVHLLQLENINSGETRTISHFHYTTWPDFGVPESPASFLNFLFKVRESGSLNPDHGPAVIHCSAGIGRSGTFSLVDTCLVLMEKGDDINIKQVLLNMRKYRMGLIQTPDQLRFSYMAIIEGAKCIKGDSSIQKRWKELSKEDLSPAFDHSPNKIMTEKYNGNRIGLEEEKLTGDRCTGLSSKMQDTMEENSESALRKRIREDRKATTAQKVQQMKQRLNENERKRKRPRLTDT
# Description: Human PTPN2 Biochemical Assay
# Test compounds were dissolved in DMSO, and 10-point serial 3-fold dilution series in DMSO were prepared in Echo Qualified 384-well Polypropylene Microplates (Labcyte, San Jose, CA) (top concentration 50 µM). Assay plates (384-well low volume black plates; Corning #3820, Corning, NY) were prepared by dispensing 50 nL of test compound, and DMSO (for high and low controls) by ECHO acoustic dispenser (Labcyte, San Jose CA). This was followed by addition of 5 μL of 0.2 nM human PTPN2 (1-387) solution (prepared in the assay buffer, 50 mM Tris pH 7.4, 150 mM NaCl, 0.01% Tween20, 0.5 mM dithiothreitol) to all wells except the low control. 5 μl of assay buffer was added into the low control, then the plate was incubated for 30 minutes at room temperature. Subsequently, 5 μl of 100 µM DiFMUP (6,8-difluoro-4-methylumbelliferyl phosphate) solution (prepared in assay buffer from 10 mM stock in DMSO) was added to the assay plate and incubated for 1 hour at room temperature. For detection, assay plates were read on SpectraMax Microplate Reader (Molecular Devices), with Excitation wavelength=360 nm and Emission wavelength=460 nm. Test compound effects were normalized to the window defined by the controls, DMSO/buffer, and DMSO/50 pM human PTPN2. Calculated % effects were fit using a 4-parameter algorithm, and EC50 was reported.
# human PTPN1 (1-435), sequence (P18031 whole entry): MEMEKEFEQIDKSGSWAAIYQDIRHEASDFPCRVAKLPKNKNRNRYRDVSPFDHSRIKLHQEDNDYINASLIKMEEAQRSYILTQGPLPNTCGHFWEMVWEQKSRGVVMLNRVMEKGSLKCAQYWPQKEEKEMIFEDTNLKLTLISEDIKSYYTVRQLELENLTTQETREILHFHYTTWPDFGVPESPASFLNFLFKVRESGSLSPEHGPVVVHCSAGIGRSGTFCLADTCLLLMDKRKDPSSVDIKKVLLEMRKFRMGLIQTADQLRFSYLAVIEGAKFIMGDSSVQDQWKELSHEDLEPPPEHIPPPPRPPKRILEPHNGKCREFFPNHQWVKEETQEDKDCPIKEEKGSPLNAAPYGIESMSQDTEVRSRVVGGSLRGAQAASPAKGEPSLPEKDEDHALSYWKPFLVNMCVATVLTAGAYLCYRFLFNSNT
Structure (SMILES),IC50 (human PTPN1 (1-435)),IC50 (human PTPN2 (1-387))
O=C(NC1CCCN(c2ccccc2)C1)c1ccc2sc(C(F)(F)P(=O)(O)O)c(Br)c2c1 (stereo not drawn) [Compound 76],1.88 µM,0.958 µM
CC(=O)N1CCc2ccc(NC(=O)c3ccc4sc(C(F)(F)P(=O)(O)O)c(Br)c4c3)cc21 [Compound 77],0.73 µM,1.11 µM
CN1C[C@H]2[C@H](CNC(=O)c3ccc4sc(C(F)(F)P(=O)(O)O)c(Br)c4c3)[C@H]2c2ccccc21 [Compound 78],1.09 µM,1.03 µM
O=C(N[C@H]1CC(=O)N(C2CC2)C1)c1ccc2sc(C(F)(F)P(=O)(O)O)c(Br)c2c1 [Compound 79],8.1 µM,9.75 µM
CC(NC(=O)c1ccc2sc(C(F)(F)P(=O)(O)O)c(Br)c2c1)c1ccc2c(c1)OCCO2 (stereo not drawn) [Compound 80],2.13 µM,1.89 µM
CC(Cn1ccc2ccccc21)NC(=O)c1ccc2sc(C(F)(F)P(=O)(O)O)c(Br)c2c1 (stereo not drawn) [Compound 81],0.115 µM,0.0273 µM
O=C(NCCc1nc(-c2ccccc2)cs1)c1ccc2sc(C(F)(F)P(=O)(O)O)c(Br)c2c1 [Compound 82],1.39 µM,1.88 µM
N#Cc1ccc2c(c1)CC(NC(=O)c1ccc3sc(C(F)(F)P(=O)(O)O)c(Br)c3c1)C2 (stereo not drawn) [Compound 83],1.63 µM,2.01 µM
CCC(COCc1ccccc1)NC(=O)c1ccc2sc(C(F)(F)P(=O)(O)O)c(Br)c2c1 (stereo not drawn) [Compound 84],7.43 µM,3.47 µM
CCN1C(=O)CCC12C[C@H]2CCNC(=O)c1ccc2sc(C(F)(F)P(=O)(O)O)c(Br)c2c1 (stereo partly drawn) [Compound 85],4.67 µM,4.54 µM
O=C(N[C@@H]1CCCC[C@H]1c1ccccc1)c1ccc2sc(C(F)(F)P(=O)(O)O)c(Br)c2c1 [Compound 86],3.78 µM,1.45 µM
COc1ccc(CCC(C)NC(=O)c2ccc3sc(C(F)(F)P(=O)(O)O)c(Br)c3c2)cc1 (stereo not drawn) [Compound 87],7.09 µM,3.3 µM
O=C(NC[C@]12C[C@@H]1CCN2Cc1ccccc1)c1ccc2sc(C(F)(F)P(=O)(O)O)c(Br)c2c1 [Compound 88],1.09 µM,1.51 µM
O=C(NCCn1nnc2ccccc21)c1ccc2sc(C(F)(F)P(=O)(O)O)c(Br)c2c1 [Compound 89],5.12 µM,6.04 µM
O=C(NCc1ccccc1N1CCOCC1)c1ccc2sc(C(F)(F)P(=O)(O)O)c(Br)c2c1 [Compound 90],4.21 µM,5.8 µM
O=C(NCc1nccc(-c2cccnc2)n1)c1ccc2sc(C(F)(F)P(=O)(O)O)c(Br)c2c1 [Compound 91],4.98 µM,6.17 µM
CC(C)(O)c1ccc(CNC(=O)c2ccc3sc(C(F)(F)P(=O)(O)O)c(Br)c3c2)cn1 [Compound 92],1.94 µM,3.16 µM
CC(C)C1CC(CNC(=O)c2ccc3sc(C(F)(F)P(=O)(O)O)c(Br)c3c2)C1 (stereo not drawn) [Compound 93],4.13 µM,4.33 µM
O=C(NCCc1c[nH]c2ccc(F)cc12)c1ccc2sc(C(F)(F)P(=O)(O)O)c(Br)c2c1 [Compound 94],2.4 µM,2.8 µM
COc1cccc(CNC(=O)c2ccc3sc(C(F)(F)P(=O)(O)O)c(Br)c3c2)c1OC(F)F [Compound 95],3.9 µM,4.78 µM
Cn1cc(NC(=O)c2ccc3sc(C(F)(F)P(=O)(O)O)c(Br)c3c2)cn1 [Compound 96],0.94 µM,1.28 µM
O=C(N[C@H]1CCCNC1=O)c1ccc2sc(C(F)(F)P(=O)(O)O)c(Br)c2c1 [Compound 97],7.08 µM,8.23 µM
CC1CCCC(NC(=O)c2ccc3sc(C(F)(F)P(=O)(O)O)c(Br)c3c2)C1 (stereo not drawn) [Compound 98],4.57 µM,4.73 µM
CCn1nccc1NC(=O)c1ccc2sc(C(F)(F)P(=O)(O)O)c(Br)c2c1 [Compound 99],2.62 µM,3.79 µM
O=C(Nc1ccc(Sc2ccccc2)nc1)c1ccc2sc(C(F)(F)P(=O)(O)O)c(Br)c2c1 [Compound 100],0.54 µM,0.682 µM
O=C(Nc1cccc(C(=O)N2CCCC2)c1)c1ccc2sc(C(F)(F)P(=O)(O)O)c(Br)c2c1 [Compound 101],1.78 µM,2.36 µM
CC(NC(=O)c1ccc2sc(C(F)(F)P(=O)(O)O)c(Br)c2c1)c1cccc(OC(F)(F)F)c1 (stereo not drawn) [Compound 102],2.88 µM,2.46 µM

Structure (SMILES),IC50 (human PTPN1 (1-435)),IC50 (human PTPN2 (1-387))
CC(NC(=O)c1ccc2sc(C(F)(F)P(=O)(O)O)c(Br)c2c1)c1cnccn1 (stereo not drawn) [Compound 103],3.14 µM,3.46 µM
O=C(Nc1cccc(CO)n1)c1ccc2sc(C(F)(F)P(=O)(O)O)c(Br)c2c1 [Compound 104],9.15 µM,6.5 µM
CCC(NC(=O)c1ccc2sc(C(F)(F)P(=O)(O)O)c(Br)c2c1)c1nccs1 (stereo not drawn) [Compound 105],5.14 µM,5.78 µM
Cc1c(NC(=O)c2ccc3sc(C(F)(F)P(=O)(O)O)c(Br)c3c2)cccc1C(=O)N1CCCC1 [Compound 106],6.92 µM,8.97 µM
COCCOc1cc(C)ccc1NC(=O)c1ccc2sc(C(F)(F)P(=O)(O)O)c(Br)c2c1 [Compound 107],3.86 µM,4.03 µM
O=C(Nc1ccccc1OC1CCOCC1)c1ccc2sc(C(F)(F)P(=O)(O)O)c(Br)c2c1 [Compound 108],4.08 µM,3.62 µM
O=C(Nc1cccc(-n2nccn2)c1)c1ccc2sc(C(F)(F)P(=O)(O)O)c(Br)c2c1 [Compound 109],0.465 µM,0.78 µM
O=C(NC1COc2ccccc2C1)c1ccc2sc(C(F)(F)P(=O)(O)O)c(Br)c2c1 (stereo not drawn) [Compound 110],3.2 µM,3.56 µM
O=C(NC1(c2cncc(C(F)(F)F)c2)CC1)c1ccc2sc(C(F)(F)P(=O)(O)O)c(Br)c2c1 [Compound 111],3.98 µM,4.26 µM
COCC(NC(=O)c1ccc2sc(C(F)(F)P(=O)(O)O)c(Br)c2c1)c1ccc(F)cc1 (stereo not drawn) [Compound 112],3.68 µM,2.91 µM
CC(NC(=O)c1ccc2sc(C(F)(F)P(=O)(O)O)c(Br)c2c1)c1ccccc1-n1cccn1 (stereo not drawn) [Compound 113],4.08 µM,4.17 µM
O=C(NCC1CCCN(c2ncccn2)C1)c1ccc2sc(C(F)(F)P(=O)(O)O)c(Br)c2c1 (stereo not drawn) [Compound 114],3.5 µM,5.17 µM
O=C(NC1(c2cccc(F)c2)CCCC1)c1ccc2sc(C(F)(F)P(=O)(O)O)c(Br)c2c1 [Compound 115],3.62 µM,2.6 µM
O=C(N[C@H]1CCN(C(=O)C2CC2)C1)c1ccc2sc(C(F)(F)P(=O)(O)O)c(Br)c2c1 [Compound 116],0.987 µM,1.06 µM
O=C(NC(c1ccc(F)cc1)C(F)F)c1ccc2sc(C(F)(F)P(=O)(O)O)c(Br)c2c1 (stereo not drawn) [Compound 117],2.14 µM,2.73 µM
Cc1cc(C)n(-c2ccccc2NC(=O)c2ccc3sc(C(F)(F)P(=O)(O)O)c(Br)c3c2)n1 [Compound 118],5.91 µM,6.17 µM
O=C(NCc1cnc2[nH]ccc2c1)c1ccc2sc(C(F)(F)P(=O)(O)O)c(Br)c2c1 [Compound 119],0.404 µM,0.63 µM
O=C(NCc1cccnc1C(F)(F)F)c1ccc2sc(C(F)(F)P(=O)(O)O)c(Br)c2c1 [Compound 120],3.79 µM,4.99 µM
O=C(NCc1ccc(C(F)(F)F)nc1)c1ccc2sc(C(F)(F)P(=O)(O)O)c(Br)c2c1 [Compound 121],2.31 µM,3.1 µM
COc1ncccc1CNC(=O)c1ccc2sc(C(F)(F)P(=O)(O)O)c(Br)c2c1 [Compound 122],3.89 µM,5.37 µM
O=C(NCc1cnccn1)c1ccc2sc(C(F)(F)P(=O)(O)O)c(Br)c2c1 [Compound 123],3.56 µM,4.29 µM
Cc1nn(C)c(C)c1CNC(=O)c1ccc2sc(C(F)(F)P(=O)(O)O)c(Br)c2c1 [Compound 124],6.12 µM,7.38 µM
COCCCNC(=O)c1ccc2sc(C(F)(F)P(=O)(O)O)c(Br)c2c1 [Compound 125],5.23 µM,6.52 µM
O=C(NCC1CNC1)c1ccc2sc(C(F)(F)P(=O)(O)O)c(Br)c2c1 [Compound 126],5.23 µM,6.11 µM
O=C(NC1CCCOC1)c1ccc2sc(C(F)(F)P(=O)(O)O)c(Br)c2c1 (stereo not drawn) [Compound 127],5.14 µM,6.7 µM
O=C(NC1CCS(=O)(=O)CC1)c1ccc2sc(C(F)(F)P(=O)(O)O)c(Br)c2c1 [Compound 128],4.08 µM,4.9 µM
Cc1c[nH]c(CNC(=O)c2ccc3sc(C(F)(F)P(=O)(O)O)c(Br)c3c2)c(C)c1=O [Compound 129],2.23 µM,2.65 µM
